Data on ten compounds can be found in ChEMBL document CHEMBL1932924, “Design, synthesis, and biological evaluation of 4-phenylpyrrole derivatives as novel androgen receptor antagonists” (Bioorg Med Chem, 2012).

The target of assay [1] is T1, Androgen receptor (Homo sapiens, UniProt P10275, W742C). The assay can be described thus: Agonist activity at human androgen receptor W741C mutant expressed in COS7 cells assessed as luciferase activity after 24 hrs by reporter gene assay. In kind it is functional, cell-based, COS-7. (In general: Reporter assays use an easily measured gene product as a stand-in for the process of interest.)
T1 sequence (P10275 whole entry W742C): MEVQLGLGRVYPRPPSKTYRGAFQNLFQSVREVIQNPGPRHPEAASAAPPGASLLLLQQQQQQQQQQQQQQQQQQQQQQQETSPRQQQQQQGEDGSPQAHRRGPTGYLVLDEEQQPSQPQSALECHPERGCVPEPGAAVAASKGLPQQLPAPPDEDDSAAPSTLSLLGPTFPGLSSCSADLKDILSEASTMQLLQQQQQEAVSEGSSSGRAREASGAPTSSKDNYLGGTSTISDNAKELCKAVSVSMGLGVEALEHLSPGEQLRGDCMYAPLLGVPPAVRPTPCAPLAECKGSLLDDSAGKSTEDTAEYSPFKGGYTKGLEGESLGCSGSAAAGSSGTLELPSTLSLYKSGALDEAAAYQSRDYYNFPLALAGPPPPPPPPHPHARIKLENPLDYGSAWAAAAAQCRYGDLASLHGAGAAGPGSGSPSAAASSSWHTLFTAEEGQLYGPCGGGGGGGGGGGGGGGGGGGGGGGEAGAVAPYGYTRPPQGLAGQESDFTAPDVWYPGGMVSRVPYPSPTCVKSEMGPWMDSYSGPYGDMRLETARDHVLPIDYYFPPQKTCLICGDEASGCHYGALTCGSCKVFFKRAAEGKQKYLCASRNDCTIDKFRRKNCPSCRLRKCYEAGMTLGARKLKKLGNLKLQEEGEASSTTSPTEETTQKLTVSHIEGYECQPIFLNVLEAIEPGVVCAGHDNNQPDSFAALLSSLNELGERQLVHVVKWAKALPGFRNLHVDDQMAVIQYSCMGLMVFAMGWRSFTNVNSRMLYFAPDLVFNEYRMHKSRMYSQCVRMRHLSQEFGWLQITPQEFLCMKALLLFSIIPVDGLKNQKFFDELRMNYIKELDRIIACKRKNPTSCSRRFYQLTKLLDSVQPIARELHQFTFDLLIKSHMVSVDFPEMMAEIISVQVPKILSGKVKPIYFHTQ

The target in assay [2] is T2, Androgen receptor (Homo sapiens, UniProt P10275).
T2 sequence (P10275 whole entry): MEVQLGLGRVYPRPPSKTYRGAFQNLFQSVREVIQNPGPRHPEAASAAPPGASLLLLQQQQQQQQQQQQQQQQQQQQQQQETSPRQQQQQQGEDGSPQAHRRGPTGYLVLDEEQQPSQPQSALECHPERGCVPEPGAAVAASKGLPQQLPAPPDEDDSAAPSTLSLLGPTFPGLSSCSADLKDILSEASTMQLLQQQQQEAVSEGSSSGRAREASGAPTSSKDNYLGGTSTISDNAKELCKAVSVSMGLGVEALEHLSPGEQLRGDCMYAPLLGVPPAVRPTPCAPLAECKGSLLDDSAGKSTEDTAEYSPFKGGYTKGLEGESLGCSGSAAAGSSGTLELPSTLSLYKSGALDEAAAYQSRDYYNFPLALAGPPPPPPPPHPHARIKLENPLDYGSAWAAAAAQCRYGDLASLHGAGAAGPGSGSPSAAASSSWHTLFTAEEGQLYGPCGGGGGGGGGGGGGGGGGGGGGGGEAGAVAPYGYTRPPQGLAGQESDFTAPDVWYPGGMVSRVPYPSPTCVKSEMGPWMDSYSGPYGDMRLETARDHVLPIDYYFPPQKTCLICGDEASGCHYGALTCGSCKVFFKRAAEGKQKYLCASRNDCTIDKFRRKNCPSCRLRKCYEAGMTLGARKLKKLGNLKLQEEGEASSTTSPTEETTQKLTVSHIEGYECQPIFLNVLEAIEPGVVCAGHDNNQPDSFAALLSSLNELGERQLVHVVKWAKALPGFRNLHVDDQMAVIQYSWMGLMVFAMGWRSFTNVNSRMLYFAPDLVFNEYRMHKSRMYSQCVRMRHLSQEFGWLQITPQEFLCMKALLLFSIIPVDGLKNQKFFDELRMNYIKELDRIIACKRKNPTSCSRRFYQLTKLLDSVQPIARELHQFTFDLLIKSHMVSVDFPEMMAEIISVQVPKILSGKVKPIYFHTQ
The assay can be described thus: Displacement of [17-alpha-methyl-3H]-mibolerone from human androgen receptor expressed in HEK293 derived FreeStyle293F cells after 3 hrs. Format: cell-based.

In assay [3] the target is T3, Androgen receptor (Homo sapiens, UniProt P10275, T878A). Briefly: Agonist activity at human androgen receptor T877A mutant expressed in COS7 cells assessed as luciferase activity after 24 hrs by reporter gene assay. In kind it is functional, cell-based, COS-7.
T3 sequence (P10275 whole entry T878A): as the sequence (P10275 whole entry W742C) above, with C742W, T878A counted along it
Assay [4] concerns the target T2, Androgen receptor. Briefly: Antagonist activity at human androgen receptor expressed in COS7 cells assessed as inhibition of DHT-induced luciferase activity after 24 hrs by reporter gene assay. In kind it is functional, cell-based, COS-7.
The target of assay [5] is T1, Androgen receptor. The assay can be described thus: Antagonist activity at human androgen receptor W741C mutant expressed in COS7 cells assessed as inhibition of DHT-induced luciferase activity after 24 hrs by reporter gene assay. In kind it is functional, cell-based, COS-7.
The target in assay [6] is T2, Androgen receptor. Briefly: Agonist activity at human androgen receptor expressed in COS7 cells assessed as luciferase activity after 24 hrs by reporter gene assay. In kind it is functional, cell-based, COS-7.
The target of assay [7] is T3, Androgen receptor. The assay can be described thus: Displacement of [17-alpha-methyl-3H]-mibolerone from human androgen receptor T877A mutant expressed in HEK293 derived FreeStyle293F cells after 3 hrs. In kind it is cell-based.
Assay [8] deals with T3, Androgen receptor. The assay can be described thus: Antagonist activity at human androgen receptor T877A mutant expressed in COS7 cells assessed as inhibition of DHT-induced luciferase activity after 24 hrs by reporter gene assay. Format: functional, cell-based, COS-7.

Some results are limits rather than exact numbers.

Turning to `CCOC(=O)c1c(-c2ccc([N+](=O)[O-])cc2)c(C)n(C(=O)c2ccccc2)c1C`, the EC50 on Androgen receptor [1], on Androgen receptor [3] and at Androgen receptor [6] was greater than 10000 nM each time. Also, the IC50 amounted to 150 nM on Androgen receptor [2]; 2400 nM at Androgen receptor [4]; 7700 nM on Androgen receptor [5]; 85 nM on Androgen receptor [7]; 1500 nM on Androgen receptor [8].
As for `COC(=O)c1c(-c2ccc(C#N)cc2)c(C)n(Cc2ccccc2)c1C`, the EC50 at Androgen receptor [1], at Androgen receptor [3] and at Androgen receptor [6] was greater than 10000 nM in each case. In addition, the IC50 is 27 nM on Androgen receptor [2]; 270 nM at Androgen receptor [4]; 710 nM at Androgen receptor [5]; 23 nM on Androgen receptor [7]; 120 nM at Androgen receptor [8].
`CCOC(=O)c1c(-c2ccc([N+](=O)[O-])cc2)c(C)n(CCc2ccccc2)c1C`: the EC50 at Androgen receptor [1], on Androgen receptor [3] and on Androgen receptor [6] was greater than 10000 nM throughout. The half-inhibitory concentration (IC50) is 150 nM at Androgen receptor [2]; 4100 nM on Androgen receptor [4]; greater than 10000 nM at Androgen receptor [5]; 52 nM at Androgen receptor [7]; 970 nM on Androgen receptor [8].
In the case of `COC(=O)c1c(-c2ccc([N+](=O)[O-])cc2)c(C)n(Cc2ccccc2)c1C`, the EC50 at Androgen receptor [1], on Androgen receptor [3] and on Androgen receptor [6] was greater than 10000 nM each time. Further, the IC50 at Androgen receptor [2] stood at 5 nM; on Androgen receptor [4], 300 nM; on Androgen receptor [5] it was 740 nM; on Androgen receptor [7], 3.8 nM; at Androgen receptor [8], 150 nM.
In the case of `CCOC(=O)c1c(-c2ccc([N+](=O)[O-])cc2)c(C)n(C)c1C`, the EC50 at Androgen receptor [1], on Androgen receptor [3] and at Androgen receptor [6] was greater than 10000 nM in each case. Further, the IC50 came to 47 nM on Androgen receptor [2]; 500 nM on Androgen receptor [4]; 6200 nM at Androgen receptor [5]; 30 nM at Androgen receptor [7]; 210 nM on Androgen receptor [8].
On to `CCOC(=O)c1c(-c2ccc([N+](=O)[O-])cc2)c(C)n(S(=O)(=O)c2ccccc2)c1C`, for which the EC50 on Androgen receptor [1], at Androgen receptor [3] and on Androgen receptor [6] was greater than 10000 nM in each case. The 50% inhibitory concentration (IC50) at Androgen receptor [2] is 130 nM; at Androgen receptor [4], 4700 nM; at Androgen receptor [5] it was greater than 10000 nM; at Androgen receptor [7] it was 62 nM; on Androgen receptor [8] it was 4700 nM.
Consider `CCOC(=O)c1c(-c2ccc([N+](=O)[O-])cc2)c(C)n(CC2CCCCC2)c1C`, for which the EC50 on Androgen receptor [1], on Androgen receptor [3] and on Androgen receptor [6] was greater than 10000 nM each time. Also, the half-maximal inhibitory concentration (IC50) was determined as 310 nM at Androgen receptor [2]; 3800 nM at Androgen receptor [4]; 7200 nM at Androgen receptor [5]; 350 nM at Androgen receptor [7]; 3700 nM at Androgen receptor [8].
On to `CCOC(=O)c1c(C)[nH]c(C)c1-c1ccc([N+](=O)[O-])cc1`, for which the EC50 at Androgen receptor [1], on Androgen receptor [3] and on Androgen receptor [6] was greater than 10000 nM throughout. Also, the IC50 turned out to be 22 nM at Androgen receptor [2]; 240 nM on Androgen receptor [4]; 4200 nM on Androgen receptor [5]; 34 nM on Androgen receptor [7]; 340 nM at Androgen receptor [8].
`Cc1cc(-c2ccc([N+](=O)[O-])cc2)c(C)n1Cc1ccccc1`: the 50% effective concentration (EC50) on Androgen receptor [1], at Androgen receptor [3] and at Androgen receptor [6] was greater than 10000 nM in each case. Further, the IC50 worked out at 6.7 nM on Androgen receptor [2]; 490 nM at Androgen receptor [4]; 3100 nM on Androgen receptor [5]; 2.2 nM on Androgen receptor [7]; 210 nM on Androgen receptor [8].
As for `COC(=O)c1c(-c2ccccc2)c(C)n(Cc2ccccc2)c1C`, the EC50 at Androgen receptor [1], on Androgen receptor [3] and on Androgen receptor [6] was greater than 10000 nM in each case. Further, the half-maximal inhibitory concentration (IC50) at Androgen receptor [2] was determined as 130 nM; at Androgen receptor [4], 2600 nM; at Androgen receptor [5] it was 3700 nM; at Androgen receptor [7], 65 nM; at Androgen receptor [8] it was 1300 nM.

The term EC50 denotes the concentration giving half of the maximal effect. The term IC50 denotes the concentration that inhibits the measured activity by half.
